Patent publication EP0414903A1, “NEW THIOPROLINE DERIVATIVE” (priority 1988, dated 1990)
Blank lines part the entries; values can stand above or below the compound they belong to. Non-standard residues stand in square brackets, D forms with d. Residues, ends and D or L forms follow the SMILES beside them. *: point of attachment. Thz = O=C(O)[C@@H]1CSCN1; Cbz = O=C(OCc1ccccc1)*

Assays:
[1] = tested on: scopolamine-induced amnesia; experiment: Step-down passive avoidance test (anti-amnestic activity, scopolamine-induced amnesia); assay type: in vivo, rats; conditions: scopolamine 0.5 mg/kg i.p., relative to scopolamine-treated group, retention trial 24 hours after acquisition
Source text: A step-down passive avoidance test on rats was used as the method of assay for anti-amnestic activity to estimate the preventive effect of prolylendopeptidase inhibitors on scopolamine-induced amnesia. This method of assay involved application of electric shocks to animals upon their stepping down on a grid floor to see whether they have learned that such shocks can be avoided by staying on a platform. A passive avoidance test chamber used in this experiment was comprised of an electrifiable grid floor (20 cm in length and 22 cm in width) and a platform (20 cm in length, 15 cm in width and 5 cm in height) placed at the right back corner thereof.
5-Weeks-old male rats of Wister strain weighing 100-150 g (purchased from Japan Clea Laboratory) were used in the test.
Each test compound used in the doses indicated in Tables 1 - 4 was dissolved or suspended in 4% gum arabic-containing distilled water (1.0 ml) and administered p.o. one hour before the commencement of acquisition trial. In addition, scopolamine hydrobromide dissolved in saline (0.5 ml) was intraperitoneally administered in a dose of 0.5 mg/kg 30 minutes before the acquisition trial to prepare experimental animal models of amnesia.
In the acquisition trial, the rat was placed on the platform in the test chamber and, when the animal stepped down on the grid floor, the electric current of 5.0 mA was immediately sent to the grid floor continuously until the animal went up on the platform. If the rat having gone up on the platform stayed there for more than 30 seconds, the animal was regarded to have learned the situation and taken out of the test chamber. A total time of measurement in the acquisition trial was limited to 300 seconds as maximum, and the time elapsing until the rat learned the situation was measured. In order to avoid any significant difference in the rats, those which took more than 300 seconds for the learning were excluded from the experiment.
The retention trial was carried out 24 hours after the acquisition trial. In this trial, the rat was placed again on the platform in the test chamber, the time elapsing until the animal stepped down onto the grid floor (the step-down latency) was measured.
In each of these tables they are indicated as relative step-down latency, shown by each test compound-treated group in the retention trial, to step-down latency for scopolamine-treated group (i.e. test compound-treated group's step-down latency/scopolamine-treated group's step-down latency).

bovine brain PEP = target: T1, bovine brain PEP (Bos taurus, UniProt Q9XTA2); experiment: Inhibitory activity against proline endopeptidase (PEP), substrate Z-Gly-Pro-β-NA; assay type: biochemical; conditions: pH 7.0, 37°C
T1 construct: from tissue; host or cells: bovine brain
T1 sequence (Q9XTA2 1-710): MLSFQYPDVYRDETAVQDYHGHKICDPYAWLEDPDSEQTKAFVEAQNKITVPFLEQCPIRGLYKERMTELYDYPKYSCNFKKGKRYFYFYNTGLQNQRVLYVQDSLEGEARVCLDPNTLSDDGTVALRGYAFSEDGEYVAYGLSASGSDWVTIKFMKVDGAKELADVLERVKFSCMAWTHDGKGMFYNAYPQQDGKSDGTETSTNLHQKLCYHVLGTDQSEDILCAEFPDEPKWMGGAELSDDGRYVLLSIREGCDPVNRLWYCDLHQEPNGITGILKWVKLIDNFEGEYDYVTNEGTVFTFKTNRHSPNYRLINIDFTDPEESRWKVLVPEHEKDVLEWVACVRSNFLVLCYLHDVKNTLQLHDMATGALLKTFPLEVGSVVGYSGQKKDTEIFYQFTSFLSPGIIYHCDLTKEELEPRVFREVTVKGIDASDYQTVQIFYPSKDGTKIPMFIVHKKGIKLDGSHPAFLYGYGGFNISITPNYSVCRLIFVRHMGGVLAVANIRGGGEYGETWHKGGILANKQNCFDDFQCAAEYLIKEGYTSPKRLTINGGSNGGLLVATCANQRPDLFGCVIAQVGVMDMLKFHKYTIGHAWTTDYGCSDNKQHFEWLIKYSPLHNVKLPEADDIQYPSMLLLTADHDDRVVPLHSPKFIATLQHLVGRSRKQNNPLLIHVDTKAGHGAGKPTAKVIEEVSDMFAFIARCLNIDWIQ
Method: The thioproline derivatives of the general formula (I) shown above as test compound were assayed for inhibitory activity against bovine brain PEP by the following test procedure using as substrate N-benzyloxycarbonyl-glycyl-proline-β-naphthylamide (Z-Gly-Pro-β-NA).
100 µl of PEP (about 0.14 U/ml) and 100µl of one of test compound solutions adjusted to different concentrations (0, 10⁻⁹ - 10⁻⁴M) were added to 0.7 ml of 20 mM Tris-HCl buffer (pH = 7.0) containing 10 mM EDTA and 10 mM 2-mercaptoethanol, and the mixture was preincubated at 37°C for 5 minutes. […] The reaction was […] using 25% trichloroacetic acid, and the reaction mixture was centrifuged at 3,000 r.p.m. for 10 minutes. To 0.5 ml of the supernatent was added 0.5 ml of 0.1% nitrous acid, and after 3 minutes 0.05% solution of N-(l-naphthyl)etnylenediamine dihydrochloride in ethanol was added thereto. The mixture was allowed to stand at 37°C for 25 minutes and then the absorbance at 570 nm was measured.
Enzyme Activity Unit = ΔOD x 0.42 x Dilution ratio (µmol/min/ml)

IC50 (bovine brain PEP): 10 µM
Compound: COC(OC)[C@@H]1CSCN1C(=O)[C@@H]1CSCN1C(=O)OCc1ccccc1 [Example 1, Benzyloxycarbonyl-L-thioprolyl-L-thioprolinal dimethyl acetal]
Relative step-down latency in retention trial (mean±S.E.) ([1]; Table 2, dose 0.008 mg/kg p.o.): 0.9±0.1
Relative step-down latency in retention trial (mean±S.E.) ([1]; Table 2, dose 0.04 mg/kg p.o.): 2.4±1.1
Relative step-down latency in retention trial (mean±S.E.) ([1]; Table 2, dose 0.2 mg/kg p.o.): 2.5±1.5
Relative step-down latency in retention trial (mean±S.E.) ([1]; Table 2, dose 1 mg/kg p.o.): 1.4±0.3
Relative step-down latency in retention trial (mean±S.E.) ([1]; Table 2, dose 5 mg/kg p.o.): 1.1±0.4
Relative step-down latency in retention trial (mean±S.E.) ([1]; Table 2, dose 25 mg/kg p.o.): 1.6±0.6

IC50 (bovine brain PEP): 250 µM
Compound: CCOC(OCC)[C@@H]1CSCN1C(=O)[C@@H]1CSCN1C(=O)OCc1ccccc1 [Example 2, Benzyloxycarbonyl-L-thioprolyl-L-thioprolinal diethyl acetal]
Relative step-down latency in retention trial (mean±S.E.) ([1]; Table 2, dose 0.008 mg/kg p.o.): 1.5±0.6
Relative step-down latency in retention trial (mean±S.E.) ([1]; Table 2, dose 0.04 mg/kg p.o.): 2.7±1.4
Relative step-down latency in retention trial (mean±S.E.) ([1]; Table 2, dose 0.2 mg/kg p.o.): 1.7±0.9
Relative step-down latency in retention trial (mean±S.E.) ([1]; Table 2, dose 1 mg/kg p.o.): 2.3±1.2
Relative step-down latency in retention trial (mean±S.E.) ([1]; Table 2, dose 5 mg/kg p.o.): 1.5±0.6
Relative step-down latency in retention trial (mean±S.E.) ([1]; Table 2, dose 25 mg/kg p.o.): 1.3±0.7

Compound: O=C[C@@H]1CSCN1C(=O)[C@@H]1CSCN1C(=O)OCc1ccccc1 [ZTT, Benzyloxycarbonyl-L-thioprolyl-L-thioprolinal, reference compound] (Cbz-[Thz]-[Thz]-aldehyde)
Relative step-down latency in retention trial (mean±S.E.) ([1]; Table 2, dose 0.008 mg/kg p.o.): 1.0±0.3
Relative step-down latency in retention trial (mean±S.E.) ([1]; Table 2, dose 0.04 mg/kg p.o.): 3.0±1.2
Relative step-down latency in retention trial (mean±S.E.) ([1]; Table 2, dose 0.2 mg/kg p.o.): 2.6±0.9
Relative step-down latency in retention trial (mean±S.E.) ([1]; Table 2, dose 1 mg/kg p.o.): 1.6±0.8
Relative step-down latency in retention trial (mean±S.E.) ([1]; Table 2, dose 5 mg/kg p.o.): 1.0±0.2
Relative step-down latency in retention trial (mean±S.E.) ([1]; Table 2, dose 25 mg/kg p.o.): 1.4±0.9

Compound: COc1ccc(C(=O)N2CCCC2=O)cc1 [aniracetam, reference compound]
Relative step-down latency in retention trial (mean±S.E.) ([1]; Table 3, dose 12.5 mg/kg p.o.): 1.1±0.4
Relative step-down latency in retention trial (mean±S.E.) ([1]; Table 3, dose 25 mg/kg p.o.): 1.6±0.6
Relative step-down latency in retention trial (mean±S.E.) ([1]; Table 3, dose 50 mg/kg p.o.): 2.3±0.6
Relative step-down latency in retention trial (mean±S.E.) ([1]; Table 3, dose 100 mg/kg p.o.): 0.7±0.3
